This note sets out measurements from US8198273B2, “Compounds and methods for kinase modulation, and indications therefor” (Plexxikon Inc., priority 2009, dated 2012).

The target in data set [1] is CYP3A4(BQ) (Homo sapiens, UniProt P08684). The data set is described as follows: CYP3A4(BQ) inhibition (fluorescent substrate). As to conditions: read-out: Cyp IC50 3A4(BQ). Type of data set: in vitro ADME. The procedure, abridged: (§1)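 Inhibition was followed as loss of fluorescent metabolite from a known substrate, with compound in co-factor mix as a 10-point 1:1 serial dilution (100 mM DMSO stock).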
Sequence of CYP3A4(BQ) (P08684 whole entry): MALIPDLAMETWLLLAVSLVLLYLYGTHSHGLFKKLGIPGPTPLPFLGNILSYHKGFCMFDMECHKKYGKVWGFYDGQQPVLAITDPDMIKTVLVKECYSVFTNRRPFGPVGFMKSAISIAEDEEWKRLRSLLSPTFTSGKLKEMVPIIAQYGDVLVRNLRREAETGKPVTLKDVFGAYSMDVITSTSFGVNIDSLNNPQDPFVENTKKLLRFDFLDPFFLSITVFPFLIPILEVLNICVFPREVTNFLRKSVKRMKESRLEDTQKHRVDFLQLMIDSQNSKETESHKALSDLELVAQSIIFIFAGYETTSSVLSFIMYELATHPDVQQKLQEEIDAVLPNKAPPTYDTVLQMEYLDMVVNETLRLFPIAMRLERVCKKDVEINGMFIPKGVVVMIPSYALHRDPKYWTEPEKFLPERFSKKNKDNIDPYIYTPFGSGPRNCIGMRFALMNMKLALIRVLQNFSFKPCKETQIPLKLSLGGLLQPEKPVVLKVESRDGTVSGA

For data set [2], the system named is SW620 colon adenocarcinoma cells (wild-type B-RAF). The experiment in a line: SW620 cell growth inhibition (ATPlite). To be noted: Homo sapiens, SW-620, 72 h; SW620, 3 days incubation. Type of data set: cell-based. In a few lines:
(§2)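 Cells plated overnight, then exposed 3 days at 37° C to 8-point 1:3 compound dilutions topping at 10 μM final. Viability read as ATPlite luminescence, proportional to cell number; IC50 from luminescence versus concentration.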

Data set [3] deals with SKMEL2 melanoma cells (Ras mutation). The data set is described as follows: SKMEL2 cell growth inhibition (ATPlite). The data set is classed as cell-based. To be noted: Homo sapiens, SK-MEL-2, 72 h; SKMEL2, 3 days incubation. In a few lines:
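SKMEL2 cells seeded at 2,000 per well overnight, then exposed to an 8-point 1:3 compound titration (top 10 μM final) for 3 days at 37 °C. ATPlite luminescence used as a measure of cell number to derive IC50.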
A general note: In ATP-based viability assays light output follows the ATP content of the culture.

The subject of data set [4] is A375 melanoma cells (B-Raf V600E). The experiment in a line: A375 cell growth inhibition (ATPlite). The data set is classed as cell-based. To be noted: Homo sapiens, A-375, 72 h; A375, 3 days incubation. In a few lines:
as §2

The target in data set [5] is CYP3A4(BFC) (Homo sapiens, UniProt P08684). The experiment in a line: CYP3A4(BFC) inhibition (fluorescent substrate). To be noted: read-out: Cyp IC50 3A4(BFC). Type of data set: in vitro ADME. In a few lines: as §1
Sequence of CYP3A4(BFC) (P08684 whole entry): as above

Some results are limits rather than exact numbers.

For the molecule `Cc1cnc2[nH]cc(C(=O)c3c(F)ccc(NS(=O)(=O)c4cccc(F)c4)c3F)c2c1` [P-2016, N-[2,4-Difluoro-3-(5-methyl-1H-pyrrolo[2,3-b]pyridine-3-carbonyl)-phenyl]-3-fluoro-benzenesulfonamide], the IC50 in data set [1] was 5 to 10 µM; in data set [2] it was greater than 10 µM; in data set [3], greater than 10 µM; in data set [4], less than 1 µM; in data set [5], greater than 10 µM.
With `O=C(c1c(F)ccc(NS(=O)(=O)c2ccccc2F)c1F)c1c[nH]c2nccc(Cl)c12` [P-2017, N-[3-(4-Chloro-1H-pyrrolo[2,3-b]pyridine-3-carbonyl)-2,4-difluoro-phenyl]-2-fluoro-benzenesulfonamide], the IC50 in data set [1] is greater than 10 µM; in data set [2] it was greater than 10 µM; in data set [3] it was greater than 10 µM; in data set [4], less than 1 µM; in data set [5], greater than 10 µM.
With `O=C(c1c(F)ccc(NS(=O)(=O)c2cc(F)ccc2F)c1F)c1c[nH]c2nccc(Cl)c12` [P-2018, N-[3-(4-Chloro-1H-pyrrolo[2,3-b]pyridine-3-carbonyl)-2,4-difluoro-phenyl]-2,5-difluoro-benzenesulfonamide], the IC50 in data set [1] was greater than 10 µM; in data set [2] it was greater than 10 µM; in data set [3], greater than 10 µM; in data set [4] it was less than 1 µM; in data set [5], 5 to 10 µM.
`O=C(c1c(F)ccc(NS(=O)(=O)c2cccc(F)c2)c1F)c1c[nH]c2nccc(Cl)c12` [P-2019, N-[3-(4-Chloro-1H-pyrrolo[2,3-b]pyridine-3-carbonyl)-2,4-difluoro-phenyl]-3-fluoro-benzenesulfonamide]: the concentration for half-maximal inhibition (IC50) is greater than 10 µM in data set [1]; greater than 10 µM in data set [2]; greater than 10 µM in data set [3]; less than 5 µM in data set [4]; 5 to 10 µM in data set [5].
In the case of `N#Cc1ccnc2[nH]cc(C(=O)c3c(F)ccc(NS(=O)(=O)c4ccccc4F)c3F)c12` [P-2020, N-[3-(4-Cyano-1H-pyrrolo[2,3-b]pyridine-3-carbonyl)-2,4-difluoro-phenyl]-2-fluoro-benzenesulfonamide], the IC50 in data set [1] is greater than 10 µM; in data set [2], greater than 10 µM; in data set [3] it was greater than 10 µM; in data set [4], less than 5 µM; in data set [5], greater than 10 µM.
Turning to `N#Cc1cnc2[nH]cc(C(=O)c3c(F)ccc(NS(=O)(=O)c4c(F)cccc4F)c3F)c2c1` [P-2029, N-[3-(5-Cyano-1H-pyrrolo[2,3-b]pyridine-3-carbonyl)-2,4-difluoro-phenyl]-2,6-difluoro-benzenesulfonamide], the IC50 in data set [1] was greater than 10 µM; in data set [2], greater than 10 µM; in data set [3] it was greater than 10 µM; in data set [4], less than 5 µM; in data set [5], greater than 10 µM.
`COc1ccnc2[nH]cc(C(=O)c3c(F)ccc(NS(=O)(=O)c4c(F)cccc4F)c3F)c12` [P-2031, N-[2,4-Difluoro-3-(4-methoxy-1H-pyrrolo[2,3-b]pyridine-3-carbonyl)-phenyl]-2,6-difluoro-benzenesulfonamide]: the IC50 is greater than 10 µM in data set [1]; greater than 10 µM in data set [2]; greater than 10 µM in data set [3]; less than 5 µM in data set [4]; greater than 10 µM in data set [5].
As to `O=C(c1c(F)ccc(NS(=O)(=O)c2c(F)cccc2F)c1F)c1c[nH]c2nccc(Cl)c12` [P-2033, N-[3-(4-Chloro-1H-pyrrolo[2,3-b]pyridine-3-carbonyl)-2,4-difluoro-phenyl]-2,6-difluoro-benzenesulfonamide], the IC50 in data set [1] was greater than 10 µM; in data set [2] it was greater than 10 µM; in data set [3], greater than 10 µM; in data set [4], less than 5 µM; in data set [5], greater than 10 µM.
With `N#Cc1ccnc2[nH]cc(C(=O)c3c(F)ccc(NS(=O)(=O)c4cc(F)ccc4F)c3F)c12` [P-2036, N-[3-(4-Cyano-1H-pyrrolo[2,3-b]pyridine-3-carbonyl)-2,4-difluoro-phenyl]-2,5-difluoro-benzenesulfonamide], the IC50 in data set [1] is greater than 10 µM; in data set [2] it was greater than 10 µM; in data set [3] it was greater than 10 µM; in data set [4] it was less than 5 µM; in data set [5], greater than 10 µM.
Take `N#Cc1ccnc2[nH]cc(C(=O)c3c(F)ccc(NS(=O)(=O)c4c(F)cccc4F)c3F)c12` [P-2037, N-[3-(4-Cyano-1H-pyrrolo[2,3-b]pyridine-3-carbonyl)-2,4-difluoro-phenyl]-2,6-difluoro-benzenesulfonamide]: the IC50 in data set [1] was greater than 10 µM; in data set [2], greater than 10 µM; in data set [3], greater than 10 µM; in data set [4] it was less than 5 µM; in data set [5] it was greater than 10 µM.
For the molecule `N#Cc1ccnc2[nH]cc(C(=O)c3c(F)ccc(NS(=O)(=O)c4cccc(F)c4)c3F)c12` [P-2039, N-[3-(4-Cyano-1H-pyrrolo[2,3-b]pyridine-3-carbonyl)-2,4-difluoro-phenyl]-3-fluoro-benzenesulfonamide], the IC50 in data set [1] is greater than 10 µM; in data set [2], greater than 10 µM; in data set [3], greater than 10 µM; in data set [4], less than 5 µM; in data set [5] it was greater than 10 µM.
As to `N#Cc1cnc2[nH]cc(C(=O)c3c(F)ccc(NS(=O)(=O)c4ccccc4)c3F)c2c1` [P-2046, N-[3-(5-Cyano-1H-pyrrolo[2,3-b]pyridine-3-carbonyl)-2,4-difluoro-phenyl]-benzenesulfonamide], the IC50 was greater than 10 µM in data set [1]; less than 5 µM in data set [2]; greater than 10 µM in data set [3]; less than 1 µM in data set [4]; greater than 10 µM in data set [5].
Take `N#Cc1cnc2[nH]cc(C(=O)c3cccc(NS(=O)(=O)c4ccccc4F)c3F)c2c1` [P-2051, N-[3-(5-Cyano-1H-pyrrolo[2,3-b]pyridine-3-carbonyl)-2-fluoro-phenyl]-2-fluoro-benzenesulfonamide]: the IC50 in data set [1] was greater than 10 µM; in data set [2], greater than 10 µM; in data set [3], greater than 10 µM; in data set [4] it was less than 1 µM; in data set [5], greater than 10 µM.
For `N#Cc1cnc2[nH]cc(C(=O)c3cccc(NS(=O)(=O)c4cc(F)ccc4F)c3F)c2c1` [P-2052, N-[3-(5-Cyano-1H-pyrrolo[2,3-b]pyridine-3-carbonyl)-2-fluoro-phenyl]-2,5-difluoro-benzenesulfonamide], the IC50 in data set [1] was greater than 10 µM; in data set [2], greater than 10 µM; in data set [3], greater than 10 µM; in data set [4], less than 1 µM; in data set [5] it was 5 to 10 µM.
Regarding `N#Cc1cnc2[nH]cc(C(=O)c3cccc(NS(=O)(=O)c4cccc(F)c4)c3F)c2c1` [P-2053, N-[3-(5-Cyano-1H-pyrrolo[2,3-b]pyridine-3-carbonyl)-2-fluoro-phenyl]-3-fluoro-benzenesulfonamide], the concentration for half-maximal inhibition (IC50) is greater than 10 µM in data set [1]; greater than 10 µM in data set [2]; greater than 10 µM in data set [3]; less than 5 µM in data set [4]; greater than 10 µM in data set [5].
Regarding `N#Cc1cnc2[nH]cc(C(=O)c3cccc(NS(=O)(=O)c4ccccc4)c3F)c2c1` [P-2056, N-[3-(5-Cyano-1H-pyrrolo[2,3-b]pyridine-3-carbonyl)-2-fluoro-phenyl]-benzenesulfonamide], the IC50 was greater than 10 µM in data set [1]; less than 5 µM in data set [2]; greater than 10 µM in data set [3]; less than 5 µM in data set [4]; greater than 10 µM in data set [5].
Consider `N#Cc1cnc2[nH]cc(C(=O)c3c(F)ccc(NS(=O)(=O)c4cccnc4)c3F)c2c1` [P-2072, Pyridine-3-sulfonic acid [3-(5-cyano-1H-pyrrolo[2,3-b]pyridine-3-carbonyl)-2,4-difluoro-phenyl]-amide], for which the IC50 was less than 5 µM in data set [1]; greater than 10 µM in data set [2]; greater than 10 µM in data set [3]; less than 5 µM in data set [4]; 5 to 10 µM in data set [5].
As to `COc1ccnc2[nH]cc(C(=O)c3c(F)ccc(NS(=O)(=O)c4cccnc4)c3F)c12` [P-2073, Pyridine-3-sulfonic acid [2,4-difluoro-3-(4-methoxy-1H-pyrrolo[2,3-b]pyridine-3-carbonyl)-phenyl]-amide], the IC50 was less than 5 µM in data set [1]; greater than 10 µM in data set [2]; greater than 10 µM in data set [3]; less than 10 µM in data set [4]; 5 to 10 µM in data set [5].
For `N#Cc1ccnc2[nH]cc(C(=O)c3c(F)ccc(NS(=O)(=O)c4cccnc4)c3F)c12` [P-2077, Pyridine-3-sulfonic acid [3-(4-cyano-1H-pyrrolo[2,3-b]pyridine-3-carbonyl)-2,4-difluoro-phenyl]-amide], the IC50 is 5 to 10 µM in data set [1]; greater than 10 µM in data set [2]; greater than 10 µM in data set [3]; less than 10 µM in data set [4]; 5 to 10 µM in data set [5].
Take `CCCS(=O)(=O)Nc1ccc(F)c(C(=O)c2c[nH]c3ncc(-c4ccc(Cl)nc4)cc23)c1F` [P-2154, Propane-1-sulfonic acid {3-[5-(6-chloro-pyridin-3-yl)-1H-pyrrolo[2,3-b]pyridine-3-carbonyl]-2,4-difluoro-phenyl}-amide]: the IC50 in data set [1] was greater than 10 µM; in data set [2], greater than 10 µM; in data set [3] it was greater than 10 µM; in data set [4], less than 1 µM; in data set [5], greater than 10 µM.

For orientation: IC50 means the midpoint of a concentration-inhibition curve.
